Data taken from patent US10258639B2, “Methods for treating insulin resistance and for sensitizing patients to GLP1 agonist therapy” (Research Development Foundation, priority 2014, dated 2019).

Test system: INS1 cells
Test: RNAseq of INS1 cells grown in chronic high glucose compared to controls and stimulated with FSK (Table 2)
Type: cell-based, rat
Protocol: INS-1 insulinoma cells were cultured in RPMI (corning cellgro) containing 10% fetal bovine serum (Gemini Bio Products), 100 μg/mL penicillin-streptomycin and 1 mM sodium pyruvate (corning cellgro). MIN6 cells were grown in DMEM (corning cellgro) with 10% FBS, 100 μg/mL penicillin-streptomycin and 70 uM beta-mercaptoethanol. For chronic glucose experiments, cells were maintained under low (2.8 mM) or high (20 mM) glucose for 3 days. Exendin-4 (10 nM), Forskolin (10 μM), KCl (40 mM), DMOG (1 mM) and rapamycin (50 nM) were added to cells as indicated. Cellular cAMP levels were measured using an ELISA kit (Cayman Chemical Company) according to manufacturer's instructions. Total RNAs from cells or primary islets were extracted using Trizol and cDNA was generated using the Transcriptor First Strand cDNA Synthesis kit (Roche Applied Science). cDNAs were quantified on a lightcycler 480 instrument (Roche Applied Science). Gene expression data were presented relative to the expression of housekeeping gene L32 (rat samples) and 18S (mouse and human islets). RNA-Seq libraries were prepared using the mRNA isolation protocol and the NEBNext-Ultra kits from New England Biolabs following the manufacturer's protocols. Libraries were quantitated by Qubit (Invitrogen), and run on a MiSeq instrument with paired-end 75 bp reads using v3 chemistry (Illumina) Data were analyzed by tophat2 and cuffdiff against the mouse mm10 genome build. The GEO accession number for RNAseq studies reported in the paper is GSE60158.

`C=C[C@@]1(C)CC(=O)[C@]2(O)[C@@]3(C)[C@@H](O)CCC(C)(C)[C@@H]3[C@H](O)[C@H](OC(C)=O)[C@@]2(C)O1` [FSK, Forskolin] was tested, and the “Accsl RNAseq value” (High glucose, FSK) was 0.1, the “Acpt RNAseq value” (High glucose, FSK) was 0.2 and the “Acsl4 RNAseq value” (High glucose, FSK) was 24.1. For the same compound, the “Agt RNAseq value” (High glucose, FSK) was 4.7, the “Ahi1 RNAseq value” (High glucose, FSK) was 18.6 and the “Bhlha15 RNAseq value” (High glucose, FSK) was 10.9. For the same compound, the “Btg3 RNAseq value” (High glucose, FSK) was 63.0, the “Bysl RNAseq value” (High glucose, FSK) was 56.8 and the “Canx RNAseq value” (High glucose, FSK) was 134.4. The “Ccni RNAseq value” (High glucose, FSK) was 240.1, the “Chd1 RNAseq value” (High glucose, FSK) was 24.3 and the “Chrne RNAseq value” (High glucose, FSK) was 0.0. The “Ctf1 RNAseq value” (High glucose, FSK) was 0.4, the “Cxcl2 RNAseq value” (High glucose, FSK) was 1.2 and the “Cyth3 RNAseq value” (High glucose, FSK) was 54.2. For the same compound, the “Dkc1 RNAseq value” (High glucose, FSK) was 97.6, the “Epha3 RNAseq value” (High glucose, FSK) was 0.0 and the “Epor RNAseq value” (High glucose, FSK) was 0.1. The “Fam49a RNAseq value” (High glucose, FSK) was 0.1, the “Ficd RNAseq value” (High glucose, FSK) was 15.9 and the “Fmc1 RNAseq value” (High glucose, FSK) was 28.5. For the same compound, the “Fn1 RNAseq value” (High glucose, FSK) was 320.4, the “Gabre RNAseq value” (High glucose, FSK) was 0.0 and the “Gars RNAseq value” (High glucose, FSK) was 308.1. For the same compound, the “Ggt5 RNAseq value” (High glucose, FSK) was 0.0, the “Gnl3 RNAseq value” (High glucose, FSK) was 23.1 and the “Gnmt RNAseq value” (High glucose, FSK) was 0.0. The “Gzmm RNAseq value” (High glucose, FSK) was 0.0, the “Hmcn1 RNAseq value” (High glucose, FSK) was 0.0 and the “Hmga2 RNAseq value” (High glucose, FSK) was 0.0. The “Hnrnpa1 RNAseq value” (High glucose, FSK) was 35.4, the “Hnrpdl RNAseq value” (High glucose, FSK) was 165.3 and the “Hs3st2 RNAseq value” (High glucose, FSK) was 1.0. The “Hspa4 RNAseq value” (High glucose, FSK) was 113.8, the “Hspd1 RNAseq value” (High glucose, FSK) was 63.0 and the “Icam2 RNAseq value” (High glucose, FSK) was 0.0. For the same compound, the “Il13ra1 RNAseq value” (High glucose, FSK) was 0.2, the “Il28ra RNAseq value” (High glucose, FSK) was 6.8 and the “Kcnb1 RNAseq value” (High glucose, FSK) was 13.1. The “Kcnj13 RNAseq value” (High glucose, FSK) was 0.8, the “Kdm1b RNAseq value” (High glucose, FSK) was 8.1 and the “Kif9 RNAseq value” (High glucose, FSK) was 0.0. The “LOC683722 RNAseq value” (High glucose, FSK) was 7.9, the “LOC686295 RNAseq value” (High glucose, FSK) was 3.8 and the “LOC689959 RNAseq value” (High glucose, FSK) was 7.2. The “Lrfn5 RNAseq value” (High glucose, FSK) was 0.2, the “Map3k4 RNAseq value” (High glucose, FSK) was 22.7 and the “Mef2d RNAseq value” (High glucose, FSK) was 175.0. The “Megf10 RNAseq value” (High glucose, FSK) was 0.2, the “Msn RNAseq value” (High glucose, FSK) was 3.2 and the “Myof RNAseq value” (High glucose, FSK) was 0.1. For the same compound, the “Nckap1l RNAseq value” (High glucose, FSK) was 1.8, the “Nkx2-2 RNAseq value” (High glucose, FSK) was 93.4 and the “Nolc1 RNAseq value” (High glucose, FSK) was 192.8. For the same compound, the “Notch4 RNAseq value” (High glucose, FSK) was 0.6, the “Ormdl3 RNAseq value” (High glucose, FSK) was 128.5 and the “Otop3 RNAseq value” (High glucose, FSK) was 0.0. For the same compound, the “Pabpc6 RNAseq value” (High glucose, FSK) was 0.1, the “Pde3b RNAseq value” (High glucose, FSK) was 45.5 and the “Pde4dip RNAseq value” (High glucose, FSK) was 29.3. The “Pdrg1 RNAseq value” (High glucose, FSK) was 28.6, the “Plcb2 RNAseq value” (High glucose, FSK) was 0.0 and the “RGD1309079 RNAseq value” (High glucose, FSK) was 0.8. For the same compound, the “RGD1311084 RNAseq value” (High glucose, FSK) was 0.0, the “Rab3gap2 RNAseq value” (High glucose, FSK) was 29.1 and the “Rab11fip1 RNAseq value” (High glucose, FSK) was 8.3. For the same compound, the “Rap2a RNAseq value” (High glucose, FSK) was 12.9, the “Rho RNAseq value” (High glucose, FSK) was 0.1 and the “Rpl7a RNAseq value” (High glucose, FSK) was 0.7. The “Rpl17 RNAseq value” (High glucose, FSK) was 126.3, the “Rrs1 RNAseq value” (High glucose, FSK) was 71.4 and the “Sgce RNAseq value” (High glucose, FSK) was 0.3. For the same compound, the “Smad1 RNAseq value” (High glucose, FSK) was 29.8, the “Smad3 RNAseq value” (High glucose, FSK) was 1.6 and the “Snapc1 RNAseq value” (High glucose, FSK) was 2.7. For the same compound, the “Sncaip RNAseq value” (High glucose, FSK) was 4.9, the “Spon2 RNAseq value” (High glucose, FSK) was 0.3 and the “Srp54 RNAseq value” (High glucose, FSK) was 27.8. For the same compound, the “Stard8 RNAseq value” (High glucose, FSK) was 0.4, the “Syp RNAseq value” (High glucose, FSK) was 447.7 and the “T2 RNAseq value” (High glucose, FSK) was 0.1. For the same compound, the “Taf1a RNAseq value” (High glucose, FSK) was 6.7, the “Tex38 RNAseq value” (High glucose, FSK) was 0.1 and the “Tmem114 RNAseq value” (High glucose, FSK) was 0.0. The “Tomm20 RNAseq value” (High glucose, FSK) was 70.0, the “Tpp2 RNAseq value” (High glucose, FSK) was 12.3 and the “Twistnb RNAseq value” (High glucose, FSK) was 9.1. For the same compound, the “Usp9x RNAseq value” (High glucose, FSK) was 40.0, the “Vps37b RNAseq value” (High glucose, FSK) was 32.2 and the “Zfp830 RNAseq value” (High glucose, FSK) was 17.0. For the same compound, the “Zfp385d RNAseq value” (High glucose, FSK) was 0.1, the “Accsl Fold” value (High glucose, FSK/control) was 0.9 and the “Acpt Fold” value (High glucose, FSK/control) was 3.0. The “Acsl4 Fold” value (High glucose, FSK/control) was 1.6, the “Agt Fold” value (High glucose, FSK/control) was 1.8 and the “Ahi1 Fold” value (High glucose, FSK/control) was 1.5. The “Bhlha15 Fold” value (High glucose, FSK/control) was 1.1, the “Btg3 Fold” value (High glucose, FSK/control) was 1.2 and the “Bysl Fold” value (High glucose, FSK/control) was 1.5. For the same compound, the “Canx Fold” value (High glucose, FSK/control) was 1.1, the “Ccni Fold” value (High glucose, FSK/control) was 1.5 and the “Chd1 Fold” value (High glucose, FSK/control) was 1.4. For the same compound, the “Chrne Fold” value (High glucose, FSK/control) was 0.0, the “Ctf1 Fold” value (High glucose, FSK/control) was 1.8 and the “Cxcl2 Fold” value (High glucose, FSK/control) was 3.2. For the same compound, the “Cyth3 Fold” value (High glucose, FSK/control) was 3.2, the “Dkc1 Fold” value (High glucose, FSK/control) was 1.2 and the “Epha3 Fold” value (High glucose, FSK/control) was 0.5. The “Epor Fold” value (High glucose, FSK/control) was 1.0, the “Fam49a Fold” value (High glucose, FSK/control) was 1.0 and the “Ficd Fold” value (High glucose, FSK/control) was 1.2. For the same compound, the “Fmc1 Fold” value (High glucose, FSK/control) was 1.1, the “Fn1 Fold” value (High glucose, FSK/control) was 2.7 and the “Gars Fold” value (High glucose, FSK/control) was 1.8. The “Gnl3 Fold” value (High glucose, FSK/control) was 1.3, the “Gzmm Fold” value (High glucose, FSK/control) was 0.0 and the “Hmcn1 Fold” value (High glucose, FSK/control) was 0.3. The “Hmga2 Fold” value (High glucose, FSK/control) was 0.0, the “Hnrnpa1 Fold” value (High glucose, FSK/control) was 1.4 and the “Hnrpdl Fold” value (High glucose, FSK/control) was 1.5. The “Hs3st2 Fold” value (High glucose, FSK/control) was 2.6, the “Hspa4 Fold” value (High glucose, FSK/control) was 1.2 and the “Hspd1 Fold” value (High glucose, FSK/control) was 1.0. For the same compound, the “Icam2 Fold” value (High glucose, FSK/control) was 0.0, the “Il13ra1 Fold” value (High glucose, FSK/control) was 1.0 and the “Il28ra Fold” value (High glucose, FSK/control) was 1.7. The “Kcnb1 Fold” value (High glucose, FSK/control) was 0.8, the “Kcnj13 Fold” value (High glucose, FSK/control) was 3.0 and the “Kdm1b Fold” value (High glucose, FSK/control) was 1.4. For the same compound, the “Kif9 Fold” value (High glucose, FSK/control) was 0.7, the “LOC683722 Fold” value (High glucose, FSK/control) was 1.8 and the “LOC686295 Fold” value (High glucose, FSK/control) was 1.3. For the same compound, the “LOC689959 Fold” value (High glucose, FSK/control) was 0.9, the “Lrfn5 Fold” value (High glucose, FSK/control) was 1.2 and the “Map3k4 Fold” value (High glucose, FSK/control) was 1.3. The “Mef2d Fold” value (High glucose, FSK/control) was 1.8, the “Msn Fold” value (High glucose, FSK/control) was 1.0 and the “Myof Fold” value (High glucose, FSK/control) was 0.6. The “Nckap1l Fold” value (High glucose, FSK/control) was 0.9, the “Nkx2-2 Fold” value (High glucose, FSK/control) was 2.2 and the “Nolc1 Fold” value (High glucose, FSK/control) was 1.2. For the same compound, the “Notch4 Fold” value (High glucose, FSK/control) was 1.7, the “Ormdl3 Fold” value (High glucose, FSK/control) was 1.1 and the “Otop3 Fold” value (High glucose, FSK/control) was 0.0. The “Pabpc6 Fold” value (High glucose, FSK/control) was 4.4, the “Pde3b Fold” value (High glucose, FSK/control) was 1.9 and the “Pde4dip Fold” value (High glucose, FSK/control) was 1.4. The “Pdrg1 Fold” value (High glucose, FSK/control) was 1.0, the “Plcb2 Fold” value (High glucose, FSK/control) was 1.0 and the “RGD1309079 Fold” value (High glucose, FSK/control) was 1.3. The “Rab3gap2 Fold” value (High glucose, FSK/control) was 1.3, the “Rab11fip1 Fold” value (High glucose, FSK/control) was 1.9 and the “Rap2a Fold” value (High glucose, FSK/control) was 2.2. For the same compound, the “Rho Fold” value (High glucose, FSK/control) was 0.7, the “Rpl7a Fold” value (High glucose, FSK/control) was 2.5 and the “Rpl17 Fold” value (High glucose, FSK/control) was 1.0. For the same compound, the “Rrs1 Fold” value (High glucose, FSK/control) was 1.5, the “Sgce Fold” value (High glucose, FSK/control) was 0.8 and the “Smad1 Fold” value (High glucose, FSK/control) was 1.4. For the same compound, the “Smad3 Fold” value (High glucose, FSK/control) was 0.7, the “Snapc1 Fold” value (High glucose, FSK/control) was 1.2 and the “Sncaip Fold” value (High glucose, FSK/control) was 1.4. For the same compound, the “Spon2 Fold” value (High glucose, FSK/control) was 0.7, the “Srp54 Fold” value (High glucose, FSK/control) was 1.1 and the “Stard8 Fold” value (High glucose, FSK/control) was 2.3. The “Syp Fold” value (High glucose, FSK/control) was 1.5, the “T2 Fold” value (High glucose, FSK/control) was 0.7 and the “Taf1a Fold” value (High glucose, FSK/control) was 1.3. The “Tex38 Fold” value (High glucose, FSK/control) was 0.3, the “Tomm20 Fold” value (High glucose, FSK/control) was 1.4 and the “Tpp2 Fold” value (High glucose, FSK/control) was 1.3. The “Twistnb Fold” value (High glucose, FSK/control) was 1.5, the “Usp9x Fold” value (High glucose, FSK/control) was 1.5 and the “Vps37b Fold” value (High glucose, FSK/control) was 1.3. The “Zfp830 Fold” value (High glucose, FSK/control) was 1.1, the “Zfp385d Fold” value (High glucose, FSK/control) was 0.2 and the “Accsl RNAseq value” (Low glucose, FSK) was 0.3. The “Acpt RNAseq value” (Low glucose, FSK) was 0.3 and the “Acsl4 RNAseq value” (Low glucose, FSK) was 28.6.
